The test system of test [1] is human marrow derived mesenchymal stem cells (hMSCs). In words: Peptide immobilisation studies, hMSC proliferation (CyQuant) and FACS. Type of test: cell-based. Conditions: alanine substitution study; for Mean cell number: N-terminally tethered, seeding 5,000 cells per well, CyQuant, mean +/− SEM, n = 3. An excerpt:
Could the antiproliferative activity in vitro of EPL001 in solution be more predictably evoked and investigated more readily if the peptide is instead tethered to the cell culture’s substratum? […] In the first study EPL001 was immobilised by either its N terminus or C terminus and human stem cells exposed accordingly. This followed a confirmation of dissolved EPL001’s antiproliferative activity in the same laboratory (JAH). In the second study, aa sections of EPL001 were substituted with alanine strings prior to tethering, to define a functional biological motif. Into the base of each well of a 24-well plate was inserted a glass coverslip (13mm diameter, borosilicate glass, SLS, Nottingham, UK), upon the upper surface of which had been immobilised an individual peptide using a bioconjugate technique. During preparation of the coverslips, the surfaces were modified with carboxyl (−COOH) or amine (−NH2) groups separately using a published method. The carboxyl on the coverslips or at the end of the peptide sequence were reacted with NHS in the presence of EDC, resulting in a semi-stable NHS ester, which could then be reacted with primary amines (−NH2) on the coverslips or at the end of the peptide sequences to form amide crosslinks. For the carboxyl modified coverslips, the final peptide grafted on to the surface via its NH2 terminus was in the form Glass-CO-NH-Peptide. For the amine modified coverslips, the final peptide grafted on to the surface via its COOH terminus was in the form Glass-NH-CO-Peptide. The concentration of the peptides across the glass was approximately […]. Uncoated glass was used as the reference control. Treatments were in triplicate (i.e. n = 3). The cells used were human marrow derived mesenchymal stem cells (hMSCs, Lonza, Slough, UK, cat No PT-2507). In the EPL001-terminus study they were seeded at 10,000 cells per well; in the alanine substitution study the density was 5,000 cells per well. The cells were maintained in DMEM with 10% FSC. EPL001 and three alanine-substituted versions of it were deployed separately: MKPLTGKVKEFNNI (EPL001), AAAAAGKVKEFNNI (EPL590), MKPLTAAAAEFNNI (EPL545) and MKPLTGKVKEAAAA (EPL104). The peptides in the alanine substitution study were N-terminally tethered to the substrate. Cell numbers were measured by CyQuant® (Invitrogen, Paisley, UK). […] Statistical analysis was by ANOVA using SPSS software.
Four 14-aa peptides were synthesised: MKPLTGKVKEFNNI (EPL001), AAAAAGKVKEFNNI (EPL590), MKPLTAAAAEFNNI (EPL545) and MKPLTGKVKEAAAA (EPL104). The peptides were generated from l-isomer amino acids by solid phase peptide synthesis (Model 9050, Milligen). All peptides were N-terminally tethered to the substrate by a bioconjugate technique. MSCs were derived from human bone marrow and maintained in DMEM with 10% FSC. Cells were seeded on peptide treated surfaces including a glass control in a 24-well plate with cell density 5 x 10^3. The growth inhibitory activity was examined via cell proliferation assays and cell cycle analysis, using PI and Ki-67 staining. The cell phenotype and viability (7-AAD) were analysed by flow cytometry.

For the next test, the system named is LNCaP cells. In words: MTS viable cell assay, LNCaP (Epistem). The class given is cell-based, human. Particulars: over 72h, single dose level. As to the method: (§1) Further assays on human prostate cancer cells were conducted at a contract research organisation (Epistem, Manchester, UK). LNCaP or DU145 cells seeded at 3,000 cells/well across a 96-well plate were cultured in RPMI (phenol red free), 10% FCS, 1% sodium pyruvate, Pen/strep and L-glutamine for 24h before exposure to peptides, at a single dose level in the case of LNCaPs or multiple dose levels in the case of DU145s. (For dose levels see Results.) Controls received vehicle (1% PBS). For the DU145s peptide administration was repeated after 24h. 72h after the first administration (DU145s) or only administration (LNCaP) total viable cell numbers were measured colorimetrically (MTS) using a CellTiter 96 AQueous One Solution Cell Proliferation Assay (Promega, Southampton, UK), following manufacturer’s instructions. Briefly, the media on the plates was replaced with the CellTiter reagent diluted 1:5 in DMEM. The plates were returned to the incubator for 3 hours before reading absorbance at 492 nm on a FLUORstar OPTIMA (BMG Labtech). CellTiter data are the absorbance minus background values (CellTiter plus DMEM), expressed as (OD mean +/− SEM). Statistical analysis was by ANOVA, Dunnett’s multiple comparisons test.
On the technique in general: Formazan colour is commonly taken as a measure of viable cells.

Test [2] deals with MCF 7 human breast cancer cells. Particulars: in words; EPL120 over 72h, dose range 0.04 nM– 4 μM; cited from earlier work.
The subject of another test is rat bone marrow cells. In words: Bone marrow cell assay, time-lapse cell counts over 24h. The class given is cell-based. Conditions: EPL001, EPL030 at 6μM, EPL120 at 5μM final concentration, in words (Fig 6). As to the method:
The method has been described previously at length. Bone marrow cells, consisting of various cell types including mesenchymal stem cells and fibroblasts, were cultured from adult male rats (Rattus norvegicus, SD strain). These cells were passaged from a growing primary stock in a T75 tissue culture flask (Sarstedt) into a 48 well tissue culture plate (IWAKI), with a cell density of 1 x 10^5/ml. The cell culture media, henceforth referred to as ‘supplemented a-MEMS,’ comprised α-MEMS media supplemented with 10% FCS and 1% penicillin/streptomycin (all Life Technologies, Carlsbad, CA, US). On the day of peptide addition to the cells, the supplemented α-MEMS was gently removed and fresh supplemented α-MEMS added, with 10% test material by volume to achieve micromolar concentrations, untreated controls receiving just fresh supplemented α-MEMS. (For dose levels see legends in respective result figures) All samples were filter sterilised using a Millex-GV […] syringe filter unit (Merck, Kenilworth, NJ, USA). The cells were imaged for 24 h using an incubated Zeiss Axiovert 135M microscope with a Prior Proscan II motorised stage, at 37 °C with a 5% CO2 in air feed. Each well of the 48-well tissue culture plate was then imaged for 24h every 5 min using Metamorph software (MDS Analytical Technologies, Wokingham, UK), with each well having four fields of view. The viability and cell numbers were reviewed by analysing the images captured over the 24h period and cell counts were taken at selected time points using the Metamorph software.
Fig 6 Bone marrow cells in culture exposed to long peptides. Cells were counted over 24h after exposure to the 14mer peptide EPL001 or its scrambled-sequence control EPL030 at 6μM final concentration or to the 20mer EPL120 at 5μM final concentration, compared to peptide-untreated controls.
Fig 7 Bone marrow cells in culture exposed to hexapeptides. Cells were counted over 24h after exposure to either EPL016 (= MKPLTG, the ‘Front 6’ of the 14mer EPL001) or EPL036 (= IEPVFT, the ‘Back 6’ of EPL030, the scrambled-sequence control of EPL001) at 1μM final concentration, compared to peptide-untreated controls.

A further test concerns mouse renal cell. Conditions: in words; cited from earlier work.
A further test relates to human dental pulp cells. Particulars: 5μM (single starting dose) in the cell medium; over 7 days; cited from earlier work. The source says:
EPL001 is a found sequence, as described in the Introduction. As a 14mer synthetic peptide it has been represented elsewhere as a minimized ball and stick model in silico [9]. […] An anti-EPL001 antibody administered alone potentiated compensatory renal grow ...

For the next test, the system named is DU145 cells. Put plainly: MTS viable cell assay, DU145 (Epistem). The class given is cell-based, human. Particulars: DU145, 72h. As to the method: as §1
The next test concerns PNT2 cells. Put plainly: MTS colorimetric viable cell assay, PNT2. The class given is cell-based, human. Conditions: 30 μM, 27h, 492 nm, triplicate. As to the method: (§2) Assays involving a range of peptides from 14mer down to 6mers assessed total viable PC3 or PNT2 cells using a 96-well plate MTS colorimetric assay (CellTiter 96 Aqueous One Solution Cell Proliferation Assay, Promega, Southampton, UK), with absorbance measured at 492 nm. Cells were seeded at 8,000 per well and grown for 27h. Peptides were administered at the outset to a final concentration of 30 μM (in 2 μl) to samples in triplicate. (A higher dosage was used than in the 14mer peptides study to shorten the timecourse of response.) Controls received buffer. Data are OD mean +/ − SEM, with statistical analysis by two tailed t-test. A time course study of the 14mers on PC3s, using the same technique, involved measurements at 24h and 48h.
(§3) Fig 5 Effects of a range of peptides on human prostate cancer cell growth in vitro. Assays involved a range of peptides from 14mers down to 6mers (Table 1), with viable cells assessed using a 96-well plate MTS colorimetric assay. Absorbance measured at 492 nm. Cells were seeded at 8,000 per well and grown for 27h. Peptides were administered at the outset to a final concentration of 30 μM (in 2 μl) to samples in triplicate. Controls received buffer. Data are OD mean +/- SEM, with statistical analysis by two tailed t-test. * p<0.05; **p<0.025.

The subject of a further test is PC3 cells. Put plainly: MTS colorimetric viable cell assay, PC3. The class given is cell-based, human. Particulars: PC3; 30 μM; 27h; MTS, 492 nm; triplicate. As to the method:
as §2, §3

As for “AAAAAGKVKEFNNI [EPL590, Substituted EPL001; alanines 1–5]”, the “Cell number vs Glass” value in test [1] (Day 7) was 16%; in [1] (Day 14), −23%. Also, the Mean cell number in [1] (Day 7) was 11,805 +/−4,028; in [1] (Day 14), 20,347 +/−2,264. Moreover, the “Reduction in test mean OD versus the vehicle control mean” value in the test on LNCaP cells was −21.4%.

On to “EPL120: EPL001 Edman sequence tentatively extended 6 further reads, to make a 20mer (MKPLTGKVKEFNNIKGFGVI)”, for which, in [2], the “Inhibition of IGF-1 stimulated growth in MCF-7 cell numbers” value is recorded as “dose-dependent inhibition”. Further, the “Effect on bone marrow cells in culture” value in the test with rat bone marrow cells was “pro-apoptotic”.

Consider “KGNEVMKLFPTINE [EPL010, Scrambled control (Haylor et al, 2009)]”, for which the “Activity in a mouse renal cell assay in vitro” value in the test on mouse renal cell is “inactive”.

Consider “KVKEFNNI [EPL018, KVKEFNNI, EPL001 Back 8]”, for which, in the test on human dental pulp cells, the “Reduction in cell numbers” value is listed as ~ 17%.

Turning to MKPNFN [EPL600], the “Test mean OD vs control mean” value was “+8.6%” with DU145 cells (0.015 μM); −0.1% in the test with DU145 cells (0.15 μM); −8.4% with DU145 cells (1.5 μM); −7.1% with DU145 cells (15 μM); −16.9% in the test on DU145 cells (150 μM (highest concentration)). The “Reduction in test mean OD versus the vehicle control mean” value in the test on LNCaP cells is reported as −35.1%. Further, the “Difference in percentage terms between control and test OD means” value in the test on PNT2 cells was −39.7%; in the test on PC3 cells, −27.3%.

For MKPVFN [EPL601], the “Test mean OD vs control mean” value was “+6.9%” in the test with DU145 cells (0.015 μM); −4.3% in the test on DU145 cells (0.15 μM); −10.4% in the test on DU145 cells (1.5 μM); −11.4% in the test on DU145 cells (15 μM); −14.3% with DU145 cells (150 μM (highest concentration)). Also, the “Reduction in test mean OD versus the vehicle control mean” value in the test on LNCaP cells is given as −16.0%. For the same substance, the “Difference in percentage terms between control and test OD means” value in the test on PNT2 cells was −33.2%; in the test with PC3 cells it was −28.0%.

Values taken from article PMC9714824, “Hexapeptides from mammalian inhibitory hormone hunt activate and inactivate nematode reproduction” (PLOS ONE, 2022).
